Laboratory results published in patent US20240108740A1, “THERAPEUTIC COMPOSITIONS INCLUDING SPN10 AND USES THEREOF” (Stealth BioTherapeutics Inc., priority 2022, published 2024).
Residues, ends and D or L forms follow the SMILES beside them.

What was measured:
transplant patients = test: Cyclosporine nephrotoxicity and organ health in transplant patients; type: in vivo, human; details: subjects receiving cyclosporine
Excerpt: To prevent organ or tissue rejection after transplant, patients often receive a regimen of the immunosuppressive drug cyclosporine. Cyclosporine levels are established and maintained in the subject at levels to effectively suppress the immune system. However, nephrotoxicity is a concern for these subjects, and the level of the drug in the subject's blood is monitored carefully. Cyclosporine doses are adjusted accordingly in order to not only prevent rejection, but also to deter these potentially damaging side effects. Typically, an adult transplant patient receives cyclosporine as follows: IV: 2 to 4 mg/kg/day IV infusion once daily over 4 to 6 hours, or 1 to 2 mg/kg IV infusion twice a day over 4 to 6 hours, or 2 to 4 mg/kg/day as a continuous IV infusion over 24 hours. Capsules: 8 to 12 mg/kg/day orally in 2 divided doses. Solution: 8 to 12 mg/kg orally once daily. In some patients, doses can be titrated downward with time to maintenance doses as low as 3 to 5 mg/kg/day. […]
Transplant subjects receiving cyclosporine pursuant to standard pre- and post-transplant procedures will be divided into groups. […] Subjects will be monitored for health and function of the transplanted tissue or organ, as well as the incidence and severity of nephrotoxicity often seen with prolonged cyclosporine administration.

Wild-type (WT) mice = test: Example 2: acute cerebral ischemia (occlusion of the right middle cerebral artery); type: in vivo, mouse
Description: Cerebral ischemia will be induced by occlusion of the right middle cerebral artery for 30 min. Wild-type (WT) mice will be given either saline vehicle (Veh) (i.p., n=9), peptide conjugates (2 mg/kg or 5 mg/kg, i.p., n=6), aromatic-cationic peptides (e.g., an equivalent molar dose of aromatic-cationic peptide based on the concentration of the aromatic-cationic peptide administered in the peptide conjugate treatment group), SPN10(s) (e.g., an equivalent molar dose of SPN10 based on the concentration of SPN10 administered in the peptide conjugate treatment group), or SPN10(s) in combination with aromatic-cationic peptides (e.g., an equivalent molar dose of SPN10 based on the concentration of SPN10 administered in the peptide conjugate treatment group and an equivalent molar dose of aromatic-cationic peptide based on the concentration of aromatic-cationic peptide administered in the peptide conjugate treatment group) at 0, 6, 24 and 48 hours after ischemia. Mice will be sacrificed 3 days after ischemia. Brains will be frozen, sectioned, and stained using Nissl stain. Infarct volume and hemispheric swelling will be determined using an image analyzer. Data will be analyzed by one-way ANOVA with posthoc analysis.

high-fat fed rats = test: Example 33: ROS production and redox state in rats fed a high-fat diet; type: in vivo, rat
Description: Ten rats maintained on a high-fat diet will receive daily intraperitoneal injections of peptide conjugates (1.5 mg/kg); aromatic-cationic peptides (an equivalent molar dose of aromatic-cationic peptide based on the concentration of the aromatic-cationic peptide administered in the peptide conjugate treatment group); SPN10(s) (an equivalent molar dose of SPN10 based on the concentration of SPN10 administered in the peptide conjugate treatment group); or SPN10(s) in combination with aromatic-cationic peptides (e.g., an equivalent molar dose of SPN10 based on the concentration of SPN10 administered in the peptide conjugate treatment group and an equivalent molar dose of aromatic-cationic peptide based on the concentration of aromatic-cationic peptide administered in the peptide conjugate treatment group) dissolved in phosphate-buffered saline. Dose response curves for peptide conjugates, aromatic-cationic peptides and SPN10(s) with or without aromatic-cationic peptides will be established in vitro and in vivo. Mitochondrial function will be measured according to the methods described herein.
Next, rats will be placed on a high-fat diet (60%) for six weeks with daily administration of vehicle, peptide conjugates, aromatic-cationic peptides, or SPN10(s) with or without aromatic-cationic peptides.
Protein homogenates will be prepared by homogenizing 100 mg of frozen muscle in a buffer containing 10 mM Tris, 1 mM EDTA, 1 mM EGTA, 2 mM NaOrthovanadate, 2 mM NaPyrophosphate, 5 mM NaF, and protease inhibitor cocktail (Complete), at pH 7.2. After homogenization, 1% Triton X-100 will be added to the protein suspension, which will be vortexed and incubated on ice for 5 minutes. Samples will be centrifuged at 10,000 rpm for 10 minutes to pellet the insoluble debris. For GSSG measurement, tissue will be homogenized in a solution containing 20 mM Methyl-2-vinylpyridinium triflate to scavenge all reduced thiols in the sample. Total GSH and GSSG will be measured using a commercially available GSH/GSSG assay (Oxis Research Products, Percipio Biosciences, Foster City, CA, U.S.A).
To establish a link between the increased mitochondrial H2O2 production brought about by high-fat diet and its effect on overall redox environment of skeletal muscle, both GSH and GSSG will be measured in skeletal muscle from standard chow-fed and high-fat fed rats 1) following a 10 hour fast, and 2) 1 hour after administration of a standard glucose load (oral gavage, 10 hour fasted).

[1] = tested on: mouse peritoneal macrophages; test: Example 1: oxLDL-induced CD36 expression and foam cell formation; type: cell-based
Description: Other controls will include CD36 expression from mouse heart (H) and macrophages obtained from CD36 knockout mice (KO). The amount of CD36 protein will be normalized to β-actin.
Incubation of macrophages with oxLDL for 48 hours is also anticipated to increase foam cell formation. Foam cell will be visualized by oil red O, which stains lipid droplets red.
Incubation of macrophages with oxLDL is anticipated to increase the percentage of apoptotic cells.

N2A cells = test: Example 23: caspase activity (FLICA kit); type: cell-based; set-up: dose or concentration left out as unconfirmed; details: 12 hours
Description: N2A cells will be grown on 96-well plates, treated with t-BHP (0.05 mM) in the presence of vehicle, peptide conjugates, aromatic-cationic peptides, or SPN10(s) with or without aromatic-cationic peptides at 37° C. for 12-24 hours. All treatments will be carried out in quadruplicate. N2A cells will be incubated with t-BHP ([…]) alone or in the presence of peptide conjugates, aromatic-cationic peptides, or SPN10(s) with or without aromatic-cationic peptides at 37° C. for 12 hours. Cells will be gently lifted from the plates with a cell detachment solution (Accutase, Innovative Cell Technologies, Inc., San Diego, CA, U.S.A.) and will be washed twice in PBS. Caspase activity will be assayed using a FLICA kit (Immunochemistry Technologies LLC, Bloomington, MN). According to the manufacturer's recommendation, cells will be resuspended (approx. 5×10^6 cells/mL) in PBS and labeled with pan-caspase inhibitor FAM-VAD-FMK for 1 hour at 37° C. under 5% CO2 while protected from light. Cells will then be rinsed to remove the unbound reagent and fixed. Fluorescence intensity in the cells will be measured by a laser scanning cytometer (Beckman-Coulter XL, Beckman Coulter, Inc., Fullerton, CA, U.S.A.) using the standard emission filters for green (FL1). For each run, 10,000 individual events will be collected and stored in list-mode files for off-line analysis.

Gαq mice = test: Gαq overexpression-induced heart failure; type: in vivo, mouse; details: administered from 12 to 16 weeks of age
Excerpt: It is anticipated that peptide conjugates, aromatic-cationic peptides or SPN10(s) (with or without aromatic-cationic peptides) will partially rescue Gαq overexpression-induced heart failure. Gαq protein is coupled to receptors for catecholamines and Ang II, all of which are known to be key mediators in hypertensive cardiovascular diseases. To extend these observations to a model of chronic catecholamine/Ang II stimulation, a genetic mouse model with cardiac specific overexpression of Gαq will be used, which causes heart failure in mice by 14-16 weeks of age. The Gαq mice in this study will have impairment of systolic function at 16 weeks age, which will be shown by a substantial decline in FS, with enlargement of the LV chamber, impairment of diastolic function indicated by decreased Ea/Aa, and worsening of myocardial performance index (MPI).

N=C(N)NCCC[C@H](NC(=O)[C@@H](N)Cc1c[nH]c2ccccc12)C(=O)N[C@@H](Cc1c[nH]c2ccccc12)C(=O)N[C@@H](CCCCN)C(N)=O [SPN10, H-L-Trp-L-Arg-L-Trp-L-Lys-NH2] (H-WRWK-NH2)
health of transplanted organ or tissue, cyclosporine dosage maintained (transplant patients): healthier transplanted organ or tissue | depletion of GSH in the ipsilateral cortex (Wild-type (WT) mice; 2 mg/kg i.p. at 0, 6, 24 and 48 hours): significantly be reduced | infarct volume and hemispheric swelling (Wild-type (WT) mice; treatment at 0, 6, 24 and 48 hours after 30 minute occlusion, compared to saline): significant reduction in infarct volume and hemispheric swelling | GSH/GSSG ratio in skeletal muscle (high-fat fed rats; even following glucose ingestion): preserve the GSH/GSSG ratio near control levels | mitochondrial H2O2 production during succinate and palmitoyl-carnitine supported respiration (high-fat fed rats; high-fat diet (60%) six weeks, daily administration): reduction in mitochondrial H2O2 production | mitochondrial H2O2 production during succinate-supported respiration (dose response curves) (high-fat fed rats; in vitro and in vivo): reduction in mitochondrial H2O2 production | reduction in total cellular glutathione content (GSHt) by high-fat feeding (high-fat fed rats; skeletal muscle): irrespective of treatment | percentage of apoptotic cells induced by oxLDL [1]: significantly reduce the percentage of apoptotic cells | up-regulation of CD36 protein levels by oxLDL ([1]; 25 μg/mL oxLDL, 48 hours): significantly inhibit the up-regulation of CD36 protein levels | CD36 protein levels (western blot) ([1]; compared to vehicle control (V)): significantly reduce CD36 protein levels | oxLDL-induced up-regulation of CD36 mRNA ([1]; oxLDL 50 μg/mL, 48 hours): abolish the up-regulation of CD36 | oxLDL-induced foam cell formation (oil red O) ([1]; oxLDL, 48 hours): prevent oxLDL-induced foam cell formation | increase in caspase activity by t-BHP (N2A cells): dose-dependently inhibited | LV chamber enlargement (Gαq mice): slightly reduced | systolic function and myocardial performance (Gαq mice): significantly ameliorate systolic function and improve myocardial performance
